# Several values for one entry are separate records, joined by “and”; a condition that tells them apart may be missing. Equal values may be shown once.
row,SMILES,melting point
1,"CC(C)c1cccc(OCC(=O)Nc2cccc(C(=O)O)c2)c1 [Compound 6, 3-[2-(3-isopropyl-phenoxy)-acetylamino]-benzoic acid]",166 to 167 °C
2,"O=C(COc1ccc(Nc2ccccc2)cc1)Nc1cccc(C(=O)O)c1 [Compound 65, 3-[2-(4-Phenylamino-phenoxy)-acetylamino]-benzoic acid]",214 to 215 °C
3,"Cc1cc(OCC(=S)Nc2cccc(C(=O)O)c2)ccc1C(C)C [Compound 8, 3-[2-(4-isopropyl-3-methyl-phenoxy)-thioacetylamino]-benzoic acid]",174 to 176 °C and 174 to 175 °C
4,"Cc1cc(OCC(=O)Nc2cc(F)c(F)c(C(=O)O)c2F)ccc1C(C)C [Compound 58, 2,3,6-Trifluoro-5-[2-(4-isopropyl-3-methyl-phenoxy)-acetylamino]-benzoic acid]",200 to 208 °C
5,CCc1cccc(OC2CCN(c3cccc(C(=O)O)c3)C2=O)c1 (centres unmarked) [Compound 38],150 to 152 °C
6,"O=C(COc1ccc2c(c1)CCC2)Nc1cccc(C(=O)O)c1 [Compound 19, 3-[2-(indan-5-yloxy)-acetylamino]-benzoic acid]",203 to 204 °C
7,"O=C(COc1ccc(C(=O)O)cc1)Nc1cccc(C(=O)O)c1 [Compound 50, 3-[2-(4-Carboxy-phenoxy)-acetylamino]-benzoic acid]",260 to 261 °C
8,"CCc1ccc(OCC(=O)Nc2cccc(C(=O)O)c2)cc1 [Compound 18, 3-[2-(4-ethyl-phenoxy)-acetylamino]-benzoic acid]",209 to 211 °C
9,"O=C(COc1ccc(C2CCCC2)cc1)Nc1cccc(C(=O)O)c1 [Compound 24, 3-[2-(4-cyclopentyl-phenoxy)-acetylamino]-benzoic acid]",212 to 213 °C
10,"O=C(COc1ccc(Cl)c(Cl)c1)Nc1cccc(C(=O)O)c1 [Compound 12, 3-[2-(3,4-dichlorophenoxy)-acetylamino]-benzoic acid]",219 to 221 °C
11,"Cc1ccc(OCC(=O)Nc2cccc(C(=O)O)c2)cc1C [Compound 1, 3-[2-(3,4-dimethyl-phenoxy)-acetylamino]-benzoic acid]",201 to 202 °C
12,"CC(C)c1ccccc1SCC(=O)Nc1cccc(C(=O)O)c1 [Compound 3, 3-[2-(2-isopropyl-phenylsulfanyl)-acetylamino]-benzoic acid]",178 to 179 °C
13,"O=C(O)c1cccc(N2CCC(Oc3ccc4c(c3)CCC4)C2=O)c1 (centres unmarked) [Compound 35, 3-[3-(Indan-5-yloxy)-2-oxo-pyrrolidin-1-yl]-benzoic acid]",182 to 184 °C
14,"O=C(COc1ccc(CO)cc1)Nc1cccc(C(=O)O)c1 [Compound 55, 3-[2-(4-Hydroxymethyl-phenoxy)-acetylamino]-benzoic acid]",209 to 212 °C
15,"Cc1cc(OC2CCN(c3cccc(C(=O)O)c3)C2=O)cc(C(C)C)c1 (centres unmarked) [Compound 87, 3-[3-(3-Isopropyl-5-methyl-phenoxy)-2-oxo-pyrrolidin-1-yl]-benzoic acid]",134 to 138 °C
16,"Cc1cc(OCC(=O)Nc2cc(C(=O)O)ccc2Cl)ccc1C(C)C [Example 4, 4-CHLORO-3-[2-(4-ISOPROPYL-3-METHYL-PHENOXY)-ACETYLAMINO]-BENZOIC ACID]",174 to 175 °C
17,"O=C(COc1ccc(C#Cc2ccccc2)cc1)Nc1cccc(C(=O)O)c1 [Compound 28, 3-[2-(4-phenylethynyl-phenoxy)-acetylamino]-benzoic acid]",242 to 244 °C
18,"CC(C)(c1ccccc1)c1ccc(OCC(=O)Nc2cccc(C(=O)O)c2)cc1 [Compound 22, 3-{2-[4-(1-methyl-1-phenyl-ethyl)-phenoxy]-acetylamino}-benzoic acid]",207 to 208 °C

row,SMILES,melting point
1,"CC(C)c1ccc(OC2CCN(c3cccc(C(=O)[O-])c3)C2=O)cc1.[Na+] (centres unmarked) [Compound 34, 3-[3-(4-Isopropyl-phenoxy)-2-oxo-pyrrolidin-1-yl]-benzoic acid Sodium Salt]",164 to 165 °C
2,"Cc1ccc(C(C)C)c(OC(C)C(=O)Nc2cccc(C(=O)O)c2)c1 (centres unmarked) [Compound 41, 3-[2-(2-Isopropyl-5-methyl-phenoxy)-propionylamino]-benzoic acid]",161 to 163 °C
3,"Cc1cc(OCC(=O)Nc2ccc(Cl)c(C(=O)O)c2)ccc1C(C)C [Compound 57, 2-Chloro-5-[2-(4-isopropyl-3-methyl-phenoxy)-acetylamino]-benzoic acid]",174 to 175 °C
4,"O=C(COc1ccc2c(c1)OCO2)Nc1cccc(C(=O)O)c1 [Compound 53, 3-[2-(Benzo[1,3]dioxol-5-yloxy)-acetylamino]-benzoic acid]",191 to 194 °C
5,"O=C(COc1ccc(Oc2ccccc2)cc1)Nc1cccc(C(=O)O)c1 [Compound 70, 3-[2-(4-Phenoxy-phenoxy)-acetylamino]-benzoic acid]",202 to 205 °C
6,"O=C(COc1ccc(Cc2ccccc2)cc1)Nc1cccc(C(=O)O)c1 [Compound 69, 3-[2-(4-Benzyl-phenoxy)-acetylamino]-benzoic acid]",205 to 209 °C
7,"CCOc1ccc(OCC(=O)Nc2cccc(C(=O)O)c2)cc1 [Compound 27, 3-[2-(4-ethoxy-phenoxy)-acetylamino]-benzoic acid]",191 to 192 °C
8,"O=C(O)c1cccc(N2CCC(Oc3ccc(Oc4ccccc4)cc3)C2=O)c1 (centres unmarked) [Compound 39, 3-[2-Oxo-3-(4-phenoxy-phenoxy)-pyrrolidin-1-yl]-benzoic acid]",185 to 187 °C
9,"Cc1ccc(OC2CCN(c3cccc(C(=O)O)c3)C2=O)cc1C (centres unmarked) [Compound 89, 3-[3-(3,4-Dimethyl-phenoxy)-2-oxo-pyrrolidin-1-yl]-benzoic acid]",201 to 205 °C
10,"Cc1ccc(OC2CCN(c3cccc(C(=O)O)c3)C2=O)cc1 (centres unmarked) [Compound 84, 3-[3-(4-Methyl-phenoxy)-2-oxo-pyrrolidin-1-yl]-benzoic acid]",185 to 187 °C
11,"CCOC(=O)/C=C/c1ccc(OCC(=O)Nc2cccc(C(=O)O)c2)cc1 [Compound 60, 3-{2-[4-(2-Ethoxycarbonyl-vinyl)-phenoxy]-acetylamino}-benzoic acid]",202 to 203 °C
12,"Cc1ccc(C(=O)O)cc1NC(=O)COc1ccc(C(C)C)c(C)c1 [Compound 48, 3-{2-(4-Isopropyl-3-methyl-phenoxy)-acetylamino]-4-methyl-benzoic acid]",188 to 189 °C
13,"Cc1cc(OCC(=O)Nc2cccc(C(=O)O)c2)cc(C(C)C)c1 [Compound 5, 3-[2-(3-isopropyl-5-methyl-phenoxy)-acetylamino]-benzoic acid]",183 to 184 °C
14,"Cc1ccccc1-c1ccc(OCC(=O)Nc2cccc(C(=O)O)c2)cc1 [Compound 9, 3-[2-(2’-methyl-biphen-4-yloxy)-acetylamino]-benzoic acid]",220 to 221 °C
15,"N#Cc1ccc(OCC(=O)Nc2cccc(C(=O)O)c2)cc1 [Compound 62, 3-[2-(4-Cyano-phenoxy)-acetylamino]-benzoic acid]",210 to 213 °C
16,"Cc1cc(OCC(=O)Nc2cccc(C(=O)O)c2)ccc1Cl [Compound 25, 3-[2-(4-chloro-3-methyl-phenoxy)-acetylamino]-benzoic acid]",197 to 198 °C
17,"O=C(COc1ccc(Cc2nn[nH]n2)cc1)Nc1cccc(C(=O)O)c1 [Compound 78, 3-{2-[4-(2H-Tetrazol-5-ylmethyl)-phenoxy]-acetylamino}-benzoic acid]",267 to 268 °C

# From patent publication US7763656B2, “Use of Acetylamino benzoic acid compounds for nonsense suppression and the treatment of disease” (PTC Therapeutics, Inc., priority 2002, dated 2010)
